Assay results: a melting point compilation (Tetko et al.; mined from patent text by program, amines drawn as free bases though some values may be those of a salt)

SMILES	melting point [°C]
O=C(O)c1ccc(-c2ccoc2)s1	147
N#CNC(=Nc1ccccc1)NCCNCC(O)COc1ccccc1C#N (configuration not stated)	146 to 147
COc1cc(C(=O)O)cc2c1CC(C)O2 (configuration not stated)	180 to 182
O=C(NCCN1CCCC1)Nc1ccc(-c2cnc(COCc3cc4ccccc4o3)o2)cc1	124 to 126
CCc1nc(NC)sc1-c1ccncc1	146 to 149
O=C(O)c1ccc(OC(F)(F)F)c(Cl)c1	110 to 112
CN1CCC(c2ccc(Nc3cc(-c4cccc(-n5ncc6cc(C(C)(C)C)cc(F)c6c5=O)c4CO)nn(C)c3=O)nn2)CC1	260 to 265
c1cncc(-n2cnnn2)c1	74 to 76
COC(=O)CCCc1cc2cc(Cl)ccc2n1S(=O)(=O)c1cc(C)cc(C)c1	140 to 143
CCN1C(=O)NC(c2ccc3ccccc3c2)c2cc3c(cc21)OCO3 (configuration not stated)	193 to 195
CSc1ccc(-n2cnc3ccc(-c4nnc(CCc5cccc(C#N)c5)o4)cc32)cc1	185 to 186
Cc1cc2c(cc1Oc1nnnn1-c1ccccc1)[C@@H](c1ccccc1)CN(C)CC2	140 to 142
CC(=O)OC(C)C1CCC2C3CC=C4C=CCCC4(C)C3CCC12C (configuration not stated)	103 to 104
COc1ccc(-c2ccc(C#N)cc2)cc1-c1nc2cc(C#N)ccc2[nH]1	289 to 290
CC12CCC(OS(=O)(=O)C(F)(F)F)=CC1=CCC1C2CCC2(C)C(C(=O)N(C(=S)NC3CCCCC3)C3CCCCC3)CCC12 (configuration not stated)	123 to 124
Cc1ccc2c3ccccc3n(CC(O)CN3CCNCC3c3ccc(Cl)c(Cl)c3)c2c1 (configuration not stated)	140
CCCC(c1ccc(C(=O)c2ccccc2)cc1OCc1ccc(Br)cc1)n1ccnc1 (configuration not stated)	70 to 72
N#CNC(=N)NCCN1CCC(C2(c3ccc(F)cc3)OCCO2)CC1	161 to 163
COc1ccccc1COc1ccc(S(=O)(=O)c2ccc(C)nc2Nc2cc(F)c(N(C)C)cc2Cl)cc1	68 to 70
COc1ccc(-c2nn(Cc3ccc(Cl)cc3)c(=S)cc2-c2ccncc2)cc1	144 to 145
O=C1CCC(CO)N1OCc1ccccc1 (configuration not stated)	121 to 123
CC(N(CCCl)C(N)=O)P(=O)(O)O (configuration not stated)	180

SMILES	melting point [°C]
OC/C=C(\c1ccccc1)c1ccc(C#Cc2ccccc2)cc1	115 to 117
OCCC#Cc1ccc2c(-c3ccc(Cl)cc3)nsc2c1	128 to 129
CNS(=O)(=O)Oc1ccccc1	43 to 45
Cn1nnc2sc(N)cc2c1=O	190 to 194
COc1ccc(-c2c(Cl)c(CCl)nc3cc(OC)c(OC)cc23)cc1OC	206 to 207
CCCC[C@]1(CC)CS(=O)(=O)c2cc(OC)c(OC)cc2[C@@H](c2ccccc2)N1O	174 to 175
Cc1noc(C)c1CC(C)(NC(=O)OC1C2CC3CC(C2)CC1C3)C(=O)NCCc1ccccc1 (configuration not stated)	70 to 73
COc1ccc(C(C#N)=NO)cc1	141
COc1ccc(C2CNCc3cc(C)ccc32)cc1OC (configuration not stated)	129 to 131
CNC(=O)c1cccc(C)c1Nc1nc(Nc2ccc3c(c2)N(CCOC)C(=O)CCC3)ncc1Cl	185 to 187
Cn1cc(C=O)c2cccc(F)c21	92 to 94
CCc1noc(-c2ccc(OCCC3CN(c4ccc(Cl)nn4)CCO3)cc2)n1 (configuration not stated)	164
O=C(Nc1ccc(C(=O)c2ccccc2)cc1)c1ccc(-c2ccccc2)cc1	212 to 213
CN(C)N1C2=NCCN2C(=O)c2ccccc21	197 to 198
CCCCCCCCCCCCCCCCCCOCC(CO)NC(C)=O (configuration not stated)	82 to 85
CC1Oc2ccc(C3=NNC(=O)CC3)cc2N(C)C1=O (configuration not stated)	210 to 211
COc1cccc(Sc2ccc3c(c2)CC[C@H]2NC(=O)CC[C@]32C)c1	154 to 156
O=C(O)C(=C1SCCCS1)c1cccc(C(F)(F)F)c1	165 to 166
COCC(=O)N[C@H]1CC[C@H](CCN2CCN(c3nccc4ccoc34)CC2)CC1	132
CN(C)CCCOc1ccc(N2N=C3c4cc(F)ccc4CCC3CC2=O)cc1 (configuration not stated)	118 to 120
COc1cc(OC)nc(C(=O)c2nscc2C(=O)N(C)c2ccccc2)n1	140 to 142

Further lines, results first:

melting point [°C]	SMILES
48	COc1cccc(NC(=O)c2ccc(C)cc2)c1C(C)=O
146 to 147	CCCCOc1ccc2[nH]n(Cc3ccccc3)c(=O)c2c1
163 to 166	O=C(c1cccs1)c1cnn2c(-c3cccc(NC/C=C/c4ccc([N+](=O)[O-])cc4)c3)ccnc12
42 to 43	C=C(COC(=O)Oc1ccc([N+](=O)[O-])cc1)C(=O)OCC
84 to 88	CC1(C)C(=O)NC(=O)c2ccccc21
106 to 108	CCOC(=O)C1=C(C)NC(=S)N(C(=O)OCC)C1c1ccccc1C(F)(F)F (configuration not stated)
114 to 115	CCC(=O)c1c(O)oc(=O)c(C(=O)CC)c1O
119 to 121	CCCc1cc(CCC)c2oc(C(=O)c3ccc(OC)cc3)c(C)c2c1O
57 to 58	Cc1sc(C(=O)OCc2ccccc2)cc1[N+](=O)[O-]
115 to 117	N#CC(C#N)=C1c2ccccc2-c2c(C(=O)OCCc3ccccc3)cccc21
125 to 128	COc1ccc(C(=NOC(C)=O)c2ccccc2F)c(O)c1Cl
153 to 155	CCOC(=O)N1CCC(NC(=O)c2ccc(Cl)c(Cl)c2)C12CCCCC2 (configuration not stated)
110 to 111	CC(C)C(C)(C#N)N1C(=O)c2cccc(O)c2C1=O (configuration not stated)
124 to 127	CCOC(=O)c1cc(=O)c2cccc(COc3ccc(OCc4ccc5ccccc5n4)cc3)c2o1
234	O=C(Nc1ccc(S(=O)(=O)C(F)(F)F)cc1Cl)c1cc(Cl)c2ccccc2c1O
133 to 134	CCOC(=O)C(C)(C)n1c(=O)[nH]c2ccccc2c1=O
180 to 182	CCCCOc1cc(C(=O)O)cc([N+](=O)[O-])c1C(=O)c1ccc(Cl)cc1
90 to 92	CCC/C(=C\C=C\C(=O)Oc1ccc([N+](=O)[O-])cc1)c1ccc(OC)cc1
52 to 53.5	CC(=O)OCc1cc([N+](=O)[O-])ccc1C
129 to 130	CCN(C(=O)N1CCN(c2cc(OC)cc(OC)c2)CC1)c1nc2ccccc2nc1OC
198	O=[N+]([O-])c1ccc(-n2cncn2)cc1
107 to 114	CC(C)(C)NC(=O)[C@@H]1CCCN1C(=O)[C@@H](O)[C@H](Cc1ccccc1)NC(=O)[C@H](CC(N)=O)NC(=O)COc1ccccc1N
70 to 72	CCC1Cc2cc(C(C)C(=O)O)ccc2O1 (configuration not stated)
> 220	CCOC(=O)c1ccc(NC(=O)CC(C(=O)Nc2ccc(NC(=O)Nc3ccccc3C)cc2)c2ccccc2)cc1 (configuration not stated)
240 to 241	CC1(C)CCC(C)(C)c2cc(C(N)C(=O)Nc3ccc(C(=O)O)c(O)c3)ccc21 (configuration not stated)
67.5 to 69	CCOC(=O)C(=O)CC(=O)/C=C/c1ccc(Cl)c(OC)c1F
179 to 180	CC(C)(C)OC(=O)Nc1ccc2ccc(S(C)(=O)=O)cc2c1
127 to 128	COCCOC(=O)C1=C(C(F)F)NC(C)=C(C(=O)OC(C)C)C1c1cccc(Cl)c1Cl (configuration not stated)
106 to 107	CCCCOc1c(CNC(=O)OC(C)(C)C)n(CC2CC2)c(=O)c2ccc(OCc3ccccc3)cc12
